Results reported in publication PMC12567268 (Pharmaceuticals, 2025).
Where two headings read alike, the source gives them in different places.

Tests used:
[1] = In vivo PK DDI study of TOF with or without RTV in rats (plasma LC-MS/MS, NCA); set-up: species or system Sprague–Dawley rats; settings: for concentration at 12 h: oral, rat plasma, 12 h after TOF 10 mg/kg oral
Protocol: The rats were randomly divided into three groups (eight rats per group) after 1 week of acclimatization. Each rat was pretreated with RTV by oral gavage at different doses for four consecutive days (from Day 1 to Day 4) to ensure steady-state CYP3A inhibition, based on studies indicating rapid onset of inhibition. Group 1 (control group) received the vehicle (normal saline). Groups 2 and 3 served as test groups and received 10 and 20 mg/kg RTV once daily (QD), respectively. […] The collected samples were centrifuged at 10,000 rpm for 10 min at 4 °C to separate the plasma and stored at −80 °C until analysis.
Plasma samples were prepared by protein precipitation with acetonitrile containing domperidone as an internal standard (100 ng/mL). After vortex mixing and centrifugation at 15,000× g for 10 min at 4 °C, the supernatant was analyzed by LC-MS/MS with an injection volume of 5 μL. Chromatographic separation was achieved on a C18 reversed-phase column with a mobile phase of 0.1% formic acid in water and acetonitrile at a flow rate of 0.4 mL/min. Mass spectrometry was performed in positive ion mode with an electrospray ionization probe. […] Detailed instrument settings, sample preparation, calibration, and validation data are provided in Supplementary Material (Tables S1 and S2; Figure S1).

[2] = healthy human subjects, cited from earlier work
[3] = humans; cited from earlier work
[4] = cited from earlier work
[5] = rats; cited from earlier work
[6] = cited from earlier work; remark: listed apart in the source
CYP3A4 = settings: in vitro study; cited from earlier work
[7] = healthy subjects, co-administration of RTV 400 mg twice daily; cited from earlier work
[8] = Sprague-Dawley, rat, plasma, po, 10 mg/kg, rats, TOF 10 mg/kg oral, Control (TOF only, vehicle), median [interquartile range]
[9] = rats, TOF 10 mg/kg oral, Control (TOF only, vehicle), median [interquartile range]
[10] = rats, TOF 10 mg/kg oral, RTV 10 mg/kg, median [interquartile range]

C[C@@H]1CCN(C(=O)CC#N)C[C@@H]1N(C)c1ncnc2[nH]ccc12 [TOF, Tofacitinib]
concentration at 12 h ([1]; Sprague-Dawley, rat, plasma, RTV 10 mg/kg, read-out: Lowest plasma concentration at 12 h): 1.5 ng/mL
concentration at 12 h ([1]; Sprague-Dawley, rat, plasma, RTV 10 mg/kg, read-out: Mean plasma concentration at 12 h): 21.9 ng/mL
concentration at 12 h ([1]; Sprague-Dawley, rat, plasma, RTV 20 mg/kg, read-out: Lowest plasma concentration at 12 h): 2.6 ng/mL
concentration at 12 h ([1]; Sprague-Dawley, rat, plasma, RTV 20 mg/kg, read-out: Mean plasma concentration at 12 h): 12.1 ng/mL
AUC(0-inf) [1, 8]: 2720 ng·h/mL
half-life [1, 8]: 1.21 h
half-life ([1]; Sprague-Dawley, rat, plasma, po, 10 mg/kg, rats, TOF 10 mg/kg oral, RTV 10 mg/kg, median [interquartile range]): 1 h
Cmax ([1]; Sprague-Dawley, rat, plasma, po, 10 mg/kg, rats, TOF 10 mg/kg oral, RTV 10 mg/kg, median [interquartile range], read-out: Cmax): 2250 ng/mL
AUC(0-inf) ([1]; Sprague-Dawley, rat, plasma, po, 10 mg/kg, rats, TOF 10 mg/kg oral, RTV 20 mg/kg pretreatment and coadministration, median [interquartile range]): 16000 ng·h/mL
half-life ([1]; Sprague-Dawley, rat, plasma, po, 10 mg/kg, rats, TOF 10 mg/kg oral, RTV 20 mg/kg, median [interquartile range]): 0.87 h
Cmax ([1]; Sprague-Dawley, rat, plasma, po, 10 mg/kg, rats, TOF 10 mg/kg oral, RTV 20 mg/kg, median [interquartile range], read-out: Cmax): 3900 ng/mL
Tmax ([1]; Sprague-Dawley, rat, plasma, po, 10 mg/kg, read-out: Tmax): 1 h
CL [1, 9]: 3.57 [2.65–4.49] L/h/kg
Cmax [1, 9]: 1362 [1263–1410] ng/mL
Tmax [1, 9]: 0.25 [0.25–0.5] h
CL [1, 10]: 1.65 [1.19–2.11] L/h/kg
Tmax [1, 10]: 0.5 [0.44–1.0] h
CL ([1]; rats, TOF 10 mg/kg oral, RTV 20 mg/kg, median [interquartile range]): 0.66 [0.60- 0.73] L/h/kg
Change of half-life (t1/2) with RTV ([1]; rats, TOF 10 mg/kg oral, RTV 10 and 20 mg/kg vs Control, p = 0.08): remained unchanged
Increase in AUC of TOF ([2]; co-administration of fluconazole): 79%
Increase in AUC of TOF ([2]; co-administration of ketoconazole): 103%
Hepatic clearance as share of total clearance [3]: 70%
Renal clearance as share of total clearance [3]: 30%
Increase in AUC of TOF ([4]; rats pretreated with fluconazole (inhibitor of CYP2C11)): 39%
Increase in AUC of TOF ([4]; rats pretreated with ketoconazole (inhibitor of CYP3A1/2)): 46%
Increase in AUC of TOF ([4]; rats, with voriconazole (inhibits CYP3A1/2 and CYP2C11)): 166%
Bioavailability (BA) [5]: 29.1%

C=CC[C@@H]1/C=C(\C)C[C@H](C)C[C@H](OC)[C@H]2O[C@@](O)(C(=O)C(=O)N3CCCC[C@H]3C(=O)O[C@H](/C(C)=C/[C@@H]3CC[C@@H](O)[C@H](OC)C3)[C@H](C)[C@@H](O)CC1=O)[C@H](C)C[C@@H]2OC [Tacrolimus]
Change in exposure on co-administration with RTV ([6]; patients undergoing long-term tacrolimus treatment): increase to toxic levels within 3 days

CC(=O)N1CCN(c2ccc(OCC3COC(Cn4ccnc4)(c4ccc(Cl)cc4Cl)O3)cc2)CC1 (stereo not shown) [ketoconazole]
Inhibition of the overall metabolism of TOF (CYP3A4): over 70%

COc1ccc2c3c1O[C@H]1C(=O)CC[C@@]4(O)[C@@H](C2)N(C)CC[C@]314 [oxycodone]
Change in exposure in the presence of RTV ([6]; in the presence of RTV): tripled

C[C@@H](c1ncncc1F)[C@](O)(Cn1cncn1)c1ccc(F)cc1F [voriconazole]
Decrease in steady-state AUC [7]: 82%
